Where “and” joins values, the source holds several entries; their conditions need not be identical. Equal entries are not always repeated. Entries after “also recorded” stand apart in the source; their conditions may differ. Where two headings read alike, the source gives them in different places.

Data set [1] addresses mushroom tyrosinase (Agaricus bisporus, UniProt C7FF04). The data set is described as follows: biochemical. The class given is biochemical. The conditions noted are these: for Tyrosinase inhibition (%): 25 μM, L-tyrosine as substrate, NI: no inhibition, means ± SEMs, 25 µM; for inhibitory potency relative to kojic acid: from IC50 values.
For data set [2] the following is noted: after 5 days at 20 °C; cited from earlier work.
Data set [3] concerns mushroom tyrosinase. The data set is described as follows: Kinetic studies of tyrosinase inhibition. The class given is biochemical. The conditions noted are these: for mode of tyrosinase inhibition: Lineweaver-Burk plots, L-tyrosine as substrate.
The subject of data set [4] is B16F10 melanoma cells. The data set is described as follows: Cell viability assay: EZ-cytox assay. In kind it is cell-based, murine. Conditions: up to 20 µM, 24 h.
Data set [5] deals with cellular tyrosinase in B16F10 melanoma cells. In kind it is cell-based, murine. The conditions noted are these: for cellular tyrosinase activity: 5, 10, 20 μM, α-MSH 1 μM and IBMX 200 µM, 48 h.
Data set [6] has as its system B16F10 melanoma cells. The data set is described as follows: Melanin content assay in α-MSH and IBMX co-stimulated B16F10 cells. In kind it is cell-based, murine. Conditions: for melanin contents: 5, 10, 20 μM, α-MSH and IBMX, 48 h.

mushroom tyrosinase (Agaricus bisporus, UniProt C7FF04), sequence (C7FF04 1-392): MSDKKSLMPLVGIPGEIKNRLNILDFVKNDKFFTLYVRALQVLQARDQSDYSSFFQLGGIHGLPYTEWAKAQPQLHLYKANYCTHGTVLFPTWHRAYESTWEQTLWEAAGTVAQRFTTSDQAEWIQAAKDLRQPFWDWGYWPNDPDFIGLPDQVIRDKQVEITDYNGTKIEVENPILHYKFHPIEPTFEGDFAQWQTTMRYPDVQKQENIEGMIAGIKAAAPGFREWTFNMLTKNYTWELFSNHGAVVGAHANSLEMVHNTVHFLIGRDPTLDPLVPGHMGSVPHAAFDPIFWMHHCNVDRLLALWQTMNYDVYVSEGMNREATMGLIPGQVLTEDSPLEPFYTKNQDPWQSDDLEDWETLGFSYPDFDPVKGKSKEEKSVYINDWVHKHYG

Molecule `O=C1/C(=C/c2ccc(O)c(O)c2)OC(=S)N1c1ccccc1` [Compound 1b, (Z)-5-(3,4-Dihydroxybenzylidene)-3-phenyl-2-thioxooxazolidin-4-one] registered an IC50 in data set [1] of 53.38 ± 0.39 µM.

Turning to `OC[C@H]1O[C@@H](Oc2ccc(O)cc2)[C@H](O)[C@@H](O)[C@@H]1O` [Arbutin], in data set [2], the decomposition is 10%.

The molecule `O=C1/C(=C/c2ccc(O)cc2O)OC(=S)N1c1ccccc1` [Compound 1c, (Z)-5-(2,4-Dihydroxybenzylidene)-3-phenyl-2-thioxooxazolidin-4-one] had an IC50 in data set [1] of 4.7 ± 0.4 µM. Moreover, the “Tyrosinase inhibition (%)” value in data set [1] came to 78.05 ± 4.03%. In addition, the “inhibitory potency relative to kojic acid” value in data set [1] is 5 fold and 4.9 fold. Further, in data set [3], the “mode of tyrosinase inhibition” value is listed as “competitively inhibited; also recorded: competitive inhibitors”. Besides, the Ki is 3.02 µM in data set [3] (inhibitor conc. 2.5 μM), 2.51 µM in data set [3] (inhibitor conc. 5.0 μM) and 2.19 µM in data set [3] (inhibitor conc. 10.0 μM). For the same molecule, the Vmax in data set [3] (inhibitor conc. 2.5 μM), in data set [3] (inhibitor conc. 5.0 μM), in data set [3] (inhibitor conc. 10.0 μM) and in data set [3] (regardless of concentration) was 0.04 mM/min each time. Moreover, in data set [4], the “cytotoxic effect (cell viability)” value is given as “did not have a significant cytotoxic effect”. In addition, in data set [5], the cellular tyrosinase activity entry is “significantly and concentration-dependently decreased cellular tyrosinase activity”. Further, in data set [5] (compound at 10 μM), the “cellular tyrosinase inhibition compared with kojic acid at 20 μM” value is recorded as “more potent than kojic acid; also recorded: inhibited cellular tyrosinase more than kojic acid”. Besides, the melanin contents entry in data set [6] was “significantly and potently decreased melanin contents”. Moreover, the “inhibition of melanin production compared with kojic acid at 20 µM” value in data set [6] (compound at 10 μM) was “inhibited melanin production more than kojic acid”.

`O=C1/C(=C/c2ccc(O)c(Br)c2)OC(=S)N1c1ccccc1` [Compound 1n, (Z)-5-(3-Bromo-4-hydroxybenzylidene)-3-phenyl-2-thioxooxazolidin-4-one]: the “Tyrosinase inhibition (%)” value in data set [1] was found to be 24.96 ± 4.72%.

In the case of `O=C1/C(=C/c2ccccc2O)OC(=S)N1c1ccccc1` [Compound 1j, (Z)-5-(2-Hydroxybenzylidene)-3-phenyl-2-thioxooxazolidin-4-one], half-maximal inhibition in data set [1] (IC50) required 11.2 ± 0.54 µM. The “Tyrosinase inhibition (%)” value in data set [1] was determined as 71.12 ± 0.71%. Besides, the “inhibitory potency relative to kojic acid” value in data set [1] is 2 fold and 2.1 fold. Also, the “mode of tyrosinase inhibition” value in data set [3] was “competitively inhibited; also recorded: competitive inhibitors”. Moreover, the figures for the Ki in data set [3] (inhibitor conc. 5.0 μM), in data set [3] (inhibitor conc. 10.0 μM) and in data set [3] (inhibitor conc. 20.0 μM) were 5.85 µM, 4.51 µM and 3.22 µM, respectively. Besides, the Vmax in data set [3] (inhibitor conc. 5.0 μM), in data set [3] (inhibitor conc. 10.0 μM), in data set [3] (inhibitor conc. 20.0 μM) and in data set [3] (regardless of concentration) was 0.027 mM/min throughout. Moreover, the “cytotoxic effect (cell viability)” value in data set [4] is on record as “did not have a significant cytotoxic effect”. Further, the cellular tyrosinase activity entry in data set [5] is “significantly and concentration-dependently decreased cellular tyrosinase activity”. Moreover, the “cellular tyrosinase inhibition compared with kojic acid at 20 μM” value in data set [5] (compound at 5 μM) was “inhibited cellular tyrosinase more than kojic acid”; in data set [5] (compound at 10 μM) it was “more potent than kojic acid”. In data set [6], the melanin contents result was “significantly and potently decreased melanin contents”. The “inhibition of melanin production compared with kojic acid at 20 µM” value in data set [6] (compound at 5 μM) is on record as “inhibited melanin production more than kojic acid”.

One may read the IC50 as the point on the concentration scale where inhibition reaches its midpoint. Read a low IC50 as greater potency in that assay. Broadly, the Ki is a dissociation constant, usually derived from enzyme kinetics or from competition with a known ligand. A low value points to tighter binding. In general, Vmax refers to the rate approached at saturating substrate.

These data come from publication PMC7753086 (Computational and Structural Biotechnology Journal, 2020).
